The results in this text go back to patent publication US20140242609A1, “Diagnosis and treatment of kidney stones, methods and compositions therefor” (Washington University, priority 2013, published 2014).

Where “and” joins values, the source holds several entries; their conditions need not be identical. Equal values may be shown once. Entries after “also recorded” stand apart in the source; their conditions may differ.

In one experiment the test system is claudin-14 mRNA. Description: claudin-14 mRNA levels in mouse kidney after systemic treatment (real-time PCR). Type of experiment: in vivo. The settings on record: for claudin-14 mRNA, change: 30 mg/kg BW−1 per day for 6 days, 24 hrs following the last treatment; for claudin-14 mRNA relative to control level: by 8 hrs and through to 12 hrs. The method, then:
NPS2143 and cinacalcet (Table 1) were dissolved in vehicle—20% (w/v) (2-Hydroxypropyl)-β-cyclodextrin solution and fed to mice with gavage syringe. Cyclosporin-A (Sandimmune; Table 1) was diluted in 0.9% saline and I.P. injected to animals. Control animals received vehicle injection (13% wiv Cremophor EL and 32.9% ethanol). For dietary Ca^2+ manipulation, animals were fed with the following diets for six consecutive days: basal diet: 0.61% Ca^2+ (TestDiet #5755); low Ca^2+ diet: 0 Ca^++ (TestDiet #5855); high Ca^2+ diet: 5% Ca^2+ (TestDiet #5AVB). All animals had free access to water and were housed under a 12 hr light cycle. Blood samples were taken by cardiac puncture rapidly after initiation of terminal anesthesia and centrifuged at 4° C. for 10 min. Kidney were dissected out and immediately frozen at −80° C.
(§1) Total RNA including microRNA was extracted using Trizol (Invitrogen). Cellular mRNA was reverse transcribed using the Superscript-III kit (Invitrogen), followed by real-time PCR amplification using SYBR Green PCR Master Mix (Bio-Rad) and Eppendorf Realplex2S system. The design of claudin-14 primers was described above. The design of pri-miRNA primers was according to Ma et al., (2010). Results were expressed as 2^−ΔCt values with ΔCT=Ctgene−Ctβ-actin.
SAHA and TsA were dissolved in 5% (w/v) ethanol/0.9% saline solution and fed to mice with gavage syringe. Furosemide was dissolved in 50% (w/v) DMSO/0.9% saline solution and I.P. injected to animals. All animals had free access to water and were housed under a 12 hr light cycle. Blood samples were taken by cardiac puncture rapidly after initiation of terminal anesthesia and centrifuged at 4° C. for 10 min. Kidney were dissected out and immediately frozen at −80° C.
Total RNA including microRNA was extracted using Trizol (Invitrogen). Cellular mRNA was reverse transcribed using the Superscript-III kit (Invitrogen), followed by real-time PCR amplification using SYBR Green PCR Master Mix (Bio-Rad) and Eppendorf Realplex2S system. The design of claudin-14 primers was described before by Gong et al., 2012. The design of pri-miRNA primers and ChIP primers was according to Gong et al., 2013. Results were expressed as 2^−ΔCt values with ΔCT=Ctgene−Ctβ-actin. […]
NPS2143 and cinacalcet (Table 9) were dissolved in vehicle −20% (w/v) (2-Hydroxypropyl)-β-cyclodextrin solution and fed to mice with gavage syringe. Cyclosporin-A (Sandimmune; Table 9) was diluted in 0.9% saline and I.P. injected to animals. Control animals received CNI vehicle injection (13% wiv Cremophor EL and 32.9% ethanol). FK506 was dissolved in CNI vehicle, diluted in 0.9% saline and I.P. injected to animals. For dietary Ca^+ manipulation, animals were fed with the following diets for six consecutive days: basal diet: 0.610% Ca^++ (TestDiet #5755); low Ca^++ diet: 0 Ca^++ (TestDiet #5855); high Ca^++ diet: 5% Ca^+ (TestDiet #5AVB). All animals had free access to water and were housed under a 12 hr light cycle. Blood samples were taken by cardiac puncture rapidly after initiation of terminal anesthesia and centrifuged at 4° C. for 10 min. Kidney were dissected out and immediately frozen at −80° C.
(§2) Total RNA including microRNA was extracted using Trizol (Invitrogen). Cellular mRNA was reverse transcribed using the Superscript-III kit (Invitrogen), followed by real-time PCR amplification using SYBR Green PCR Master Mix (Bio-Rad) and Eppendorf Realplex2S system. The design of claudin-14 primers was described before by Gong. Y., et al., 2012. The design of pri-miRNA primers was according to Ma. L., et al., 2010. Results were expressed as 2^−ΔCt values with ΔCT=Ctgene−Ctβ-actin.

For a further experiment, the system named is miR-9-1 promoter. As to the kind of experiment: ChIP over miR-9-1 promoter in TALH cells of treated mice. Type of experiment: in vivo, mouse. The settings on record: for fold enrichment of NFATc1 over miR-9-1 promoter region: versus vehicle. The method, then:
(§3) Freshly isolated TALH cells or primary TALH cell cultures were cross-linked in 1% paraformaldehyde (pH7.0) for 10 min at room temperature. The cross-linked cells were lysed following to instruction of MAGnify ChIP system (Invitrogen). Chromatin was sonicated into 500 bp fragments with Bioruptor UCD-200 (High power, 15 cycles of 30 seconds ON, 30 seconds OFF; Diagenode). Sheared chromatin was precipitated with antibody-bound Dynabeads (Invitrogen). Following reverse crosslink and DNA extraction, antibody-bound DNA was eluted and analyzed with real-time PCR. Two criteria for normalization were applied: fold enrichment over anti-IgG background signal and input control over chromatin input signal.
as §3, with “OFF,” for “OFF;”

For another experiment, the system named is pri-miR-9-1. As to the kind of experiment: pri-miR-9-1 transcript levels in TALH of treated mouse kidneys (real-time PCR). Type of experiment: in vivo. The settings on record: for changes in pri-miR-9-1 levels: by 8 hrs.
From the text: as §1
To measure the transcriptional level for microRNA gene in vivo in the kidney, the inventors designed primers (see Methods; Table 2) to amplify the pri-miRNA molecule, the original transcript for microRNA gene that had not yet been subjected to any nuclear or cellular processing. Because both miR-9 and miR-374 had broader localization profiles along the nephron, the inventors isolated the TALH tubular cells for pri-miRNA analyses from the mouse kidney described elsewhere in this study. WT mice (strain: C57BL/6) were treated with NPS2143 or cinacalcet as described for claudin-14 analyses and assayed for pri-miRNA levels in isolated TALH cells at 2 hrs and 8 hrs respectively. […] NPS2143 and cinacalcet also profoundly regulated pri-miR-374. […] The expression levels of miR-9-1 and miR-374 genes were both inversely correlated with that of claudin-14 gene in the kidney, compatible with the silencing role of microRNA in regulating its target gene.
Total RNA including microRNA was extracted using Trizol (Invitrogen). Cellular mRNA was reverse transcribed using the Superscript-III kit (Invitrogen), followed by real-time PCR amplification using SYBR Green PCR Master Mix (Bio-Rad) and Eppendorf Realplex2S system. The design of claudin-14 primers was described before by Gong et al., 2012. The design of pri-miRNA primers and ChIP primers was according to Gong et al., 2013. Results were expressed as 2^−ΔCt values with ΔCT=Ctgene−Ctβ-actin.
as §2

Where [1] appears, read: TPTX mice, single dose 30 mg/kg BW−1, 2 hrs.
Where [2] appears, read: cyclosporine-A pre-treated animals, 30 mg/kg BW−1, 2 hrs.
The mark [3] stands for this setting: second dose 30 mg/kg BW−1 at 12 hrs, measured at 14 hrs.
Where [4] appears, read: single oral dose 30 mg/kg BW−1, 30 mg/kg.

With `O=C(CCCCCCC(=O)Nc1ccccc1)NO` [SAHA, Suberanilohydroxamic acid], the “CLDN14 mRNA, dose response” value with claudin-14 mRNA (5 mg/kg to 25 mg/kg, 4 hrs) is recorded as “downregulation of CLDN14 at dosage as low as 5 mg/kg”. In addition, in the experiment on claudin-14 mRNA (25 mg/kg BW−1, 12 hrs), the “effects on CLDN14 mRNA in the kidney” value is given as “dissipated”. Also, the “reduction of CLDN14 expression in the kidney” value in the experiment on claudin-14 mRNA (25 mg/kg BW−1, by 4 hrs and through to at least 8 hrs) is on record as “persisted”. In the experiment with claudin-14 mRNA (single dose 25 mg/kg BW−1, 2 hrs), the “CLDN14 mRNA levels in the kidney, reduction” value is 56%. Further, in the experiment with miR-9-1 promoter (25 mg/kg BW−1, 4 hrs), the “H3K9 and H3K14 acetylation, miR-9-1 promoter, increase” value was 2.40 fold; the “NFAT binding to miR-9-1 promoter” value was “not affected”. Besides, the “transcriptional levels of miR-9-1 gene (pri-miR-9-1), increase” value with pri-miR-9-1 (25 mg/kg BW−1, 4 hrs) is listed as 1.49 fold.

For the compound `C[C@@H](NCCCc1cccc(C(F)(F)F)c1)c1cccc2ccccc12` [cinacalcet], the “claudin-14 expression, induction (dose response)” value was determined as 2.33 fold in the experiment on claudin-14 mRNA (15 mg/kg BW−1, 2 hrs); 3.17 fold in the experiment with claudin-14 mRNA (30 mg/kg BW−1, 2 hrs); 6.38 fold in the experiment on claudin-14 mRNA (45 mg/kg BW−1, 2 hrs). Further, in the experiment with claudin-14 mRNA, the “claudin-14 mRNA, change” value is “Neither NPS2143 nor cinacalcet caused changes”. The “claudin-14 expression levels, upregulation” value in the experiment with claudin-14 mRNA (setting [1]) worked out at 3.41 fold. The entries for the “claudin-14 mRNA levels, increase” value in the experiment on claudin-14 mRNA (setting [2]) and in the experiment with claudin-14 mRNA (setting [3]) were 1.73 fold and 3.23 fold, respectively. Moreover, the “claudin-14 mRNA level, upregulation” value with claudin-14 mRNA (single oral dose 30 mg/kg BW−1, 2 hrs, intact mice, versus vehicle) amounted to 3.3 fold. For the same compound, the “claudin-14 mRNA level, upregulation (ceiling)” value in the experiment on claudin-14 mRNA (single oral dose 30 mg/kg BW−1, 4 hrs, versus vehicle, 30 mg/kg) was 3.97 fold and 3.98 fold. Also, the “claudin-14 mRNA relative to control level” value in the experiment on claudin-14 mRNA (setting [4]) was “recovered to its control level; also recorded: no significant change”. The “fold enrichment of NFATc1 over miR-9-1 promoter region” value in the experiment on miR-9-1 promoter (30 mg/kg BW−1, 2 hrs) is on record as “without significant effect”. In the experiment on pri-miR-9-1 (30 mg/kg BW−1, 2 hrs), the “pri-miR-9-1 transcript level, decrease” value stood at 88%. Moreover, in the experiment with pri-miR-9-1 (30 mg/kg BW−1), the “changes in pri-miR-9-1 levels” value was “dissipated completely”. In the experiment with pri-miR-9-1 (TPTX mice, 30 mg/kg BW−1, 2 hrs), the “pri-miR-9-1 level, reduction” value worked out at 55%. In addition, in the experiment with pri-miR-9-1 (setting [2]), the “pri-miR-9-1 mRNA levels, decrease” value amounted to 34%.

For `CC(C)(Cc1ccc2ccccc2c1)NC[C@@H](O)COc1cccc(Cl)c1C#N` [NPS2143], the “claudin-14 mRNA levels, reduction (dose response)” value is listed as 45% in the experiment on claudin-14 mRNA (15 mg/kg BW−1, 2 hrs); 82% in the experiment on claudin-14 mRNA (30 mg/kg BW−1, 2 hrs); 89% in the experiment on claudin-14 mRNA (45 mg/kg BW−1, 2 hrs). In addition, in the experiment on claudin-14 mRNA, the “claudin-14 mRNA, change” value is “Neither NPS2143 nor cinacalcet caused changes”. Besides, the “claudin-14 gene expression, downregulation” value with claudin-14 mRNA (setting [1]) was found to be 35%. Moreover, the “claudin-14 mRNA levels, change” value in the experiment with claudin-14 mRNA (setting [2]) was “failed to elicit any significant change”. Moreover, the “claudin-14 mRNA levels, reduction” value with claudin-14 mRNA (setting [3]) came to 77%. Moreover, the “claudin-14 mRNA level, downregulation” value in the experiment with claudin-14 mRNA (single oral dose 30 mg/kg BW−1, 2 hrs, versus vehicle) turned out to be 80%. In addition, in the experiment with claudin-14 mRNA (single oral dose 30 mg/kg BW−1, 4 hrs), the “claudin-14 mRNA, percent of control level” value is 78%. In the experiment on claudin-14 mRNA (setting [4]), the “claudin-14 mRNA relative to control level” value is recorded as “completely recovered to its control level; also recorded: no significant change”. For the same compound, in the experiment on miR-9-1 promoter (30 mg/kg BW−1, 2 hrs, higher than vehicle level), the “H3K9 and H3K14 acetylation levels, miR-9-1 promoter region” value was 2.43 fold. Moreover, the “fold enrichment of NFATc1 over miR-9-1 promoter region” value in the experiment on miR-9-1 promoter (30 mg/kg BW−1, 2 hrs) worked out at 3.55 fold. Further, in the experiment on pri-miR-9-1 (30 mg/kg BW−1), the “changes in pri-miR-9-1 levels” value is listed as “dissipated completely”. Besides, the “pri-miR-9-1 level, increase” value in the experiment on pri-miR-9-1 (TPTX mice, 30 mg/kg BW−1) is recorded as 19%. In addition, the “pri-miR-9-1 mRNA levels, change” value with pri-miR-9-1 (setting [2]) is “failed to elicit any significant change”. The “pri-miR-9-1 transcript level, increase” value with pri-miR-9-1 (single-dose 30 mg/kg BW−1, 2 hrs) is listed as 7.65 fold.
